The target in assay [1] is Histone-lysine N-methyltransferase EZH2 (Homo sapiens, UniProt Q15910). Description: Inhibition of EZH2 (unknown origin) by radiometric assay.
Assay [2] deals with Bromodomain-containing protein 4 (Homo sapiens, UniProt O60885). Description: Inhibition of BRD4 (unknown origin) by HTRF analysis.

Molecules are shown by their SMILES.

Histone-lysine N-methyltransferase EZH2, sequence (Q15910 whole entry): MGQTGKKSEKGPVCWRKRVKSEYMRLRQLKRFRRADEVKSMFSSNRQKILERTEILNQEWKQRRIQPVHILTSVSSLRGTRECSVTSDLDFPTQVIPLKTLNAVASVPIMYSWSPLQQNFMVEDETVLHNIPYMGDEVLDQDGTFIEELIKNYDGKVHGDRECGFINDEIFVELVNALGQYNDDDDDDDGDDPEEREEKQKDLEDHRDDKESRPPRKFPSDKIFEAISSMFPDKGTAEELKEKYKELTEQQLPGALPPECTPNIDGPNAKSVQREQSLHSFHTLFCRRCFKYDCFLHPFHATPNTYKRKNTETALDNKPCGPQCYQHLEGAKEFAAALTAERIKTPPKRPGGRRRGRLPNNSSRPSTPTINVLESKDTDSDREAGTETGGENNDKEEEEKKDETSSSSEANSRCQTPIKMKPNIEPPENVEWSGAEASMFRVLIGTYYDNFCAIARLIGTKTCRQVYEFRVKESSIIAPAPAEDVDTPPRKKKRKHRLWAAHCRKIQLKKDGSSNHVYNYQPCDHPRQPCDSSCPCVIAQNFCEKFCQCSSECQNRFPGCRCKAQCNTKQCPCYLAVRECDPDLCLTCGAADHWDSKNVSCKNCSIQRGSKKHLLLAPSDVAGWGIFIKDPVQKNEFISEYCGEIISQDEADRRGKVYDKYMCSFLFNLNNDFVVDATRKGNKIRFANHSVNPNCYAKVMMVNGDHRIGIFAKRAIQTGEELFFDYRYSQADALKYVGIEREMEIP

Usually IC50 stands for the concentration that inhibits the measured activity by half. Read a high IC50 as weaker potency. Regarding `Cc1[nH]c(=O)c(CNC(=O)c2cc(-c3cn(C)c(=O)c4[nH]ccc34)cc3[nH]ccc23)c2c1CCCC2`, the concentration for half-maximal inhibition (IC50) was 100 nM in assay [1] and more than 300 nM in assay [2].

For `CCC(C)n1cc(C)c2c(C(=O)NCc3c(C)cc(C)[nH]c3=O)cc(-c3cn(C)c(=O)c4[nH]ccc34)cc21` (configuration not stated), the IC50 in assay [1] is 1.1 nM; in assay [2], more than 300 nM.

`Cc1cc(C)c(CNC(=O)c2cc(-c3cn(C)c(=O)c4[nH]ccc34)cc3c2ccn3C(C)C)c(=O)[nH]1`: the 50% inhibitory concentration (IC50) in assay [1] amounted to 5.7 nM; in assay [2] it was 214 nM.

Take `Cc1[nH]c(=O)c(CNC(=O)c2cc(-c3cn(C)c(=O)c4[nH]ccc34)cc3c2ccn3C(C)C)c2c1CCCC2`: the figures for the IC50 in assay [1] and in assay [2] were 12.3 nM and more than 300 nM, respectively.

As for `Cc1[nH]c(=O)c(CNC(=O)c2cc(-c3cn(C)c(=O)c4[nH]ccc34)cc3c2cnn3C2CCCC2)c2c1CCCC2`, the concentration for half-maximal inhibition (IC50) in assay [1] is 46 nM; in assay [2], more than 300 nM.

For `Cc1cc(C)c(CNC(=O)c2cc(-c3cn(C)c(=O)c4[nH]ccc34)cc3c2cnn3C2CCCC2)c(=O)[nH]1`, the IC50 was 37 nM in assay [1] and more than 300 nM in assay [2].

On to `CCC(C)n1ccc2c(C(=O)NCc3c4c(c(C)[nH]c3=O)CCCC4)cc(-c3cn(C)c(=O)c4[nH]ccc34)cc21` (configuration not stated), for which the half-inhibitory concentration (IC50) in assay [1] was 5.2 nM; in assay [2], more than 300 nM.

On to `CCC(CC)n1ccc2c(C(=O)NCc3c(C)cc(C)[nH]c3=O)cc(-c3cn(C)c(=O)c4[nH]ccc34)cc21`, for which the half-maximal inhibitory concentration (IC50) was found to be 3 nM in assay [1] and 154 nM in assay [2].

For `Cc1[nH]c(=O)c(CNC(=O)c2cc(-c3cn(C)c(=O)c4[nH]ccc34)cc3c2ccn3CC2CCCCC2)c2c1CCCC2`, the values for the IC50 in assay [1] and in assay [2] were 80 nM and more than 300 nM, respectively.

With `Cc1cc(C)c(CNC(=O)c2cc(-c3cn(C)c(=O)c4[nH]ccc34)cc3[nH]ccc23)c(=O)[nH]1`, the IC50 in assay [1] was 83 nM; in assay [2] it was more than 300 nM.

Regarding `CCC(CC)n1ccc2c(C(=O)NCc3c4c(c(C)[nH]c3=O)CCCC4)cc(-c3cn(C)c(=O)c4[nH]ccc34)cc21`, the IC50 in assay [1] is 16 nM; in assay [2], more than 300 nM.

For `Cc1cc(C)c(CNC(=O)c2cc(-c3cn(C)c(=O)c4[nH]ccc34)cc3c2ccn3C2CCCC2)c(=O)[nH]1`, the half-inhibitory concentration (IC50) in assay [1] worked out at 5 nM; in assay [2], 278 nM.

Take `Cc1[nH]c(=O)c(CNC(=O)c2cc(-c3cn(C)c(=O)c4[nH]ccc34)cc3c2ccn3C2CCCC2)c2c1CCCC2`: the IC50 in assay [1] is 8.3 nM; in assay [2], more than 300 nM.

With `CCCC(C)n1ccc2c(C(=O)NCc3c(C)cc(C)[nH]c3=O)cc(-c3cn(C)c(=O)c4[nH]ccc34)cc21` (configuration not stated), the IC50 stood at 2.8 nM in assay [1] and 173 nM in assay [2].

Regarding `CCCC(C)n1ccc2c(C(=O)NCc3c4c(c(C)[nH]c3=O)CCCC4)cc(-c3cn(C)c(=O)c4[nH]ccc34)cc21` (configuration not stated), the figures for the half-maximal inhibitory concentration (IC50) in assay [1] and in assay [2] were 9.3 nM and more than 300 nM, respectively.

In the case of `CCC(C)n1cc(C)c2c(C(=O)NCc3c4c(c(C)[nH]c3=O)CCCC4)cc(-c3cn(C)c(=O)c4[nH]ccc34)cc21` (configuration not stated), the half-maximal inhibitory concentration (IC50) in assay [1] is 7.9 nM; in assay [2], more than 300 nM.

With `Cc1[nH]c(=O)c(CNC(=O)c2cc(-c3cn(C)c(=O)c4[nH]ccc34)cc3[nH]cc(C)c23)c2c1CCCC2`, the figures for the 50% inhibitory concentration (IC50) in assay [1] and in assay [2] were more than 100 nM and more than 300 nM, respectively.

Turning to `Cc1[nH]c(=O)c(CNC(=O)c2cc(-c3cn(C)c(=O)c4[nH]ccc34)cc3c2c(C)cn3CC2CCCCC2)c2c1CCCC2`, the half-inhibitory concentration (IC50) in assay [1] was more than 100 nM; in assay [2], more than 300 nM.

As for `Cc1cc(C)c(CNC(=O)c2cc(-c3cn(C)c(=O)c4[nH]ccc34)cc3c2c(C)cn3CC2CCCCC2)c(=O)[nH]1`, the figures for the IC50 in assay [1] and in assay [2] were 12 nM and more than 300 nM, respectively.

For the compound `Cc1cc(C)c(CNC(=O)c2cc(-c3cn(C)c(=O)c4[nH]ccc34)cc3[nH]cc(C)c23)c(=O)[nH]1`, the IC50 is more than 100 nM in assay [1] and more than 300 nM in assay [2].

Consider `Cc1cc(C)c(CNC(=O)c2cc(-c3cn(C)c(=O)c4[nH]ccc34)cc3c2ccn3CC2CCCCC2)c(=O)[nH]1`, for which the half-inhibitory concentration (IC50) was determined as 63 nM in assay [1] and 187 nM in assay [2].

(Values after ChEMBL document CHEMBL5316343, “Design, Synthesis, and Biological Evaluation of a Potent Dual EZH2-BRD4 Inhibitor for the Treatment of Some Solid Tumors” (J Med Chem, 2023).)
